Results reported in paper PMC11071649, “Synthesis and Selective Anticancer Activity Evaluation of 2-phenylacrylonitrile Derivatives as Tubulin Inhibitors” (Current Medicinal Chemistry, 2024).
Read-outs that look alike come from different tables or passages of the source.

Legend:
Type in all cases: cell-based, human
L-02 normal liver cell = assay: MTT assay, L-02 normal cells; conditions: 48 h
Outline: (§1)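 Human cell lines were obtained from ATCC and cultured in DMEM with FBS. Cells were plated in 96-well plates, exposed to compounds and assessed by MTT read-out. Activity was expressed as inhibition of net cell growth.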

MCF-7 breast cancer cell = assay: MTT anti-proliferative assay, MCF-7; conditions: for IC50: MTT, 48 h
Outline: as §1

[1] = tested on: HeLa cervical cancer cell; assay: MTT anti-proliferative assay, HeLa; conditions: MTT, 48 h
Outline: as §1

[2] = tested on: BEL-7402 liver cancer cell; assay: MTT anti-proliferative assay, BEL-7402; conditions: for IC50: MTT, 48 h
Outline: as §1

[3] = tested on: diffuse large B-cell lymphoma SU-DHL-10 cell; assay: MTT anti-proliferative assay, SU-DHL-10
Outline: as §1

[4] = tested on: Raji B lymphoblastoid cell; assay: MTT anti-proliferative assay, Raji
Outline: as §1

[5] = tested on: MGC-803 late stage differentiation gastric cancer cell; assay: MTT anti-proliferative assay, MGC-803; conditions: for IC50: MTT, 48 h
Outline: as §1

[6] = tested on: SGC-7901 early differentiation gastric cancer cell; assay: MTT anti-proliferative assay, SGC-7901; conditions: for IC50: MTT, 48 h
Outline: as §1

A549 lung cancer cell = assay: MTT anti-proliferative assay, A549; conditions: MTT, 48 h
Outline: as §1

HepG2 hepatoma cell = assay: MTT anti-proliferative assay, HepG2; conditions: for IC50: MTT, 48 h, read-out: IC50 HepG-2
Outline: as §1

[7] = tested on: HCT116 colectal cancer cell; assay: MTT anti-proliferative assay, HCT116; conditions: for IC50: MTT, 48 h, read-out: IC50 HCT-116
Outline: as §1

AGS gastric cancer cell = assay: MTT anti-proliferative assay, AGS; conditions: for IC50: MTT, 48 h
Outline: as §1

[8] = tested on: MCF-10A normal breast cell; assay: MTT assay, MCF-10A normal cells; conditions: 48 h
Outline: as §1

[9] = MTT, 48 h, read-out: IC50 SU-DHL-10

Compound | IC50 (MCF-7 breast cancer cell) [µM] | IC50 [1] [µM] | IC50 [2] [µM] | IC50 [3, 9] [µM] | IC50 ([4]; MTT, 48 h, read-out: IC50 Raji) [µM] | IC50 [5] [µM] | IC50 [6] [µM] | IC50 (A549 lung cancer cell) [µM] | IC50 (HepG2 hepatoma cell) [µM] | IC50 [7] [µM] | IC50 (AGS gastric cancer cell) [µM] | IC50 (L-02 normal liver cell) [µM] | IC50 [8] [µM] | SI (selectivity index), IC50 (L-02)/IC50 (MGC-803) [5] | SI (selectivity index), IC50 (L-02)/IC50 (HCT-116) [7] | SI (selectivity index), IC50 (L-02)/IC50 (AGS) (AGS gastric cancer cell) | also measured
N#C/C(=C\c1cccc(F)c1)c1ccc(C(F)(F)F)cc1 [Compound 1f2h] | > 100 | > 100 | > 100 | 58.4 ± 9 | > 100 | > 100 | > 100 | > 100 | > 100 | > 100 | > 100 | > 100 | > 100 | – | – | – | SI (selectivity index), IC50 (L-02)/IC50 (SU-DHL-10) [3]: > 1.7
CCc1ccc(/C=C(\C#N)c2ccc(C(F)(F)F)cc2)cc1 [Compound 1f2p] | > 100 | > 100 | > 100 | > 100 | > 100 | > 100 | > 100 | > 100 | > 100 | > 100 | > 100 | > 100 | > 100 | – | – | – | –
N#C/C(=C\c1ccccc1Br)c1ccc(C(F)(F)F)cc1 [Compound 1f2i] | > 100 | > 100 | > 100 | > 100 | > 100 | > 100 | > 100 | > 100 | > 100 | > 100 | 42 ± 11.7 | > 100 | > 100 | – | – | > 2.3 | –
N#C/C(=C\c1ccc(Cl)cc1)c1ccc(C(F)(F)F)cc1 [Compound 1f2e] | > 100 | > 100 | > 100 | > 100 | > 100 | > 100 | > 100 | > 100 | > 100 | > 100 | > 100 | > 100 | > 100 | – | – | – | –
Cc1cc(C)c(/C=C(\C#N)c2ccc(OC(F)(F)F)cc2)c(C)c1 [Compound 1a2r] | > 100 | > 100 | > 100 | > 100 | > 100 | > 100 | > 100 | > 100 | > 100 | > 100 | > 100 | > 100 | > 100 | – | – | – | –
N#C/C(=C\c1ccc(F)cc1)c1ccc(C(F)(F)F)cc1 [Compound 1f2d] | > 100 | > 100 | > 100 | > 100 | > 100 | 51.9 ± 2.1 | > 100 | > 100 | > 100 | > 100 | > 100 | > 100 | > 100 | > 1.9 | – | – | –
CN(C)c1ccc(/C=C(\C#N)c2ccc(C(F)(F)F)cc2)cc1 [Compound 1f2a] | > 100 | > 100 | > 100 | > 100 | > 100 | > 100 | > 100 | > 100 | > 100 | > 100 | > 100 | > 100 | > 100 | – | – | – | –
CCN(CC)c1ccc(/C=C(\C#N)c2ccc(C(F)(F)F)cc2)cc1 [Compound 1f2b] | > 100 | > 100 | > 100 | > 100 | > 100 | > 100 | > 100 | > 100 | > 100 | 33 ± 5.8 | > 100 | > 100 | > 100 | – | > 3.0 | – | –

Continued, in another order:

IC50 (MCF-7 breast cancer cell) [µM] | IC50 [1] [µM] | IC50 [2] [µM] | IC50 [3, 9] [µM] | IC50 ([4]; MTT, 48 h, read-out: IC50 Raji) [µM] | IC50 [5] [µM] | IC50 [6] [µM] | IC50 (A549 lung cancer cell) [µM] | IC50 (HepG2 hepatoma cell) [µM] | IC50 [7] [µM] | IC50 (AGS gastric cancer cell) [µM] | Compound | IC50 (L-02 normal liver cell) [µM] | IC50 [8] [µM] | SI (selectivity index), IC50 (L-02)/IC50 (MGC-803) [5] | SI (selectivity index), IC50 (L-02)/IC50 (HCT-116) [7] | SI (selectivity index), IC50 (L-02)/IC50 (AGS) (AGS gastric cancer cell) | also measured
36.9 ± 3.6 | > 100 | 46.8 ± 5.1 | 27.2 ± 5.3 | 11.6 ± 4.9 | 8.3 ± 1.2 | 38.2 ± 9 | > 100 | > 100 | 7.2 ± 0.6 | 18.4 ± 1.9 | COc1ccc(/C(C#N)=C/c2cc(OC)c(OC)c(OC)c2)cc1 [Compound 1e2a] | 47.5 ± 12.4 | 28.1 ± 3.6 | > 5.7 | > 6.5 | > 2.8 | SI (selectivity index), IC50 (L-02)/IC50 (BEL-7402) [2]: > 1.0; SI (selectivity index), IC50 (L-02)/IC50 (SU-DHL-10) [3]: > 1.7; SI (selectivity index), IC50 (L-02)/IC50 (Raji) [4]: > 4.0; SI (selectivity index), IC50 (L-02)/IC50 (SGC-7901) [6]: > 1.2
> 100 | > 100 | > 100 | 19.9 ± 0.7 | 7.9 ± 0.5 | 18.8 ± 1.7 | > 100 | > 100 | > 100 | > 100 | 23 ± 1 | Cc1ccc(/C(C#N)=C/c2ccc(N(C)C)cc2)cc1 [Compound 1d2a] | > 100 | > 100 | > 5.3 | – | > 4.3 | SI (selectivity index), IC50 (L-02)/IC50 (SU-DHL-10) [3]: > 5.0; SI (selectivity index), IC50 (L-02)/IC50 (Raji) [4]: > 12.5
> 100 | > 100 | > 100 | > 100 | > 100 | > 100 | 72.1 ± 4.5 | > 100 | > 100 | > 100 | > 100 | COc1ccc(/C=C(\C#N)c2cccc(OC(F)(F)F)c2)cc1 [Compound 1b2j] | > 100 | > 100 | – | – | – | SI (selectivity index), IC50 (L-02)/IC50 (SGC-7901) [6]: > 1.3
> 100 | > 100 | 3 ± 1 | 60.4 ± 0.7 | 17 ± 4.3 | 1.2 ± 0.6 | 5.4 ± 0.2 | > 100 | 15.9 ± 5.2 | 1.1 ± 0.3 | 8.2 ± 2.6 | N#C/C(=C\c1ccc(F)cc1)c1cccc(OC(F)(F)F)c1 [Compound 1b2b] | 16.1 ± 1 | 11.3 ± 2.3 | > 13.1 | > 14.5 | > 1.9 | SI (selectivity index), IC50 (L-02)/IC50 (BEL-7402) [2]: > 5.2; SI (selectivity index), IC50 (L-02)/IC50 (SGC-7901) [6]: > 2.9; SI (selectivity index), IC50 (L-02)/IC50 (HepG-2) (HepG2 hepatoma cell): > 1.0
> 100 | > 100 | 24.1 ± 2.8 | > 100 | 67.4 ± 31.7 | 16.8 ± 0.7 | 19.7 ± 1.5 | > 100 | > 100 | 8.7 ± 1.7 | 69.6 ± 15.7 | CN(C)c1ccc(/C=C(\C#N)c2ccc(OC(F)(F)F)cc2)cc1 [Compound 1a2h] | > 100 | > 100 | > 5.9 | > 11.4 | > 1.4 | SI (selectivity index), IC50 (L-02)/IC50 (BEL-7402) [2]: > 4.1; SI (selectivity index), IC50 (L-02)/IC50 (Raji) [4]: > 1.4; SI (selectivity index), IC50 (L-02)/IC50 (SGC-7901) [6]: > 5.0
67.7 ± 5.4 | > 100 | 77.4 ± 3 | 1 ± 0.2 | 1 ± 0.2 | 87.5 ± 0.6 | 22.2 ± 8.6 | > 100 | > 100 | 22.9 ± 6.2 | 25.3 ± 7.5 | N#C/C(=C\c1ccc(/C=C/C(=O)c2ccc(F)cc2)cc1)c1ccc(OC(F)(F)F)cc1 [Compound 8c] | > 100 | 15.8 ± 2.5 | > 1.1 | > 4.3 | > 3.9 | SI (selectivity index), IC50 (L-02)/IC50 (BEL-7402) [2]: > 1.2; SI (selectivity index), IC50 (L-02)/IC50 (SU-DHL-10) [3]: > 96.1; IC50 ([3]; read-out: IC50 SU-DHL-10 cells): ~1 µM; SI (selectivity index), IC50 (L-02)/IC50 (Raji) [4]: > 99.0; IC50 ([4]; read-out: IC50 Raji cells): ~1 µM; SI (selectivity index), IC50 (L-02)/IC50 (SGC-7901) [6]: > 4.5
> 100 | > 100 | > 100 | > 100 | > 100 | > 100 | > 100 | > 100 | > 100 | > 100 | > 100 | CC(C)c1ccc(/C=C(\C#N)c2cccc(OC(F)(F)F)c2)cc1 [Compound 1b2g] | > 100 | > 100 | – | – | – | –
52.3 ± 2.2 | > 100 | 65.4 ± 2.5 | 42.6 ± 11.4 | 11.8 ± 0.4 | 8.6 ± 0.04 | > 100 | > 100 | > 100 | 3.1 ± 0.5 | 24.1 ± 0.2 | CCN(CC)c1ccc(/C=C(\C#N)c2ccc(C)cc2)cc1 [Compound 1d2b] | > 100 | > 100 | > 11.5 | > 32.0 | > 4.1 | SI (selectivity index), IC50 (MCF-10A)/IC50 (MCF-7) (MCF-7 breast cancer cell): > 1.9; SI (selectivity index), IC50 (L-02)/IC50 (BEL-7402) [2]: > 1.5; SI (selectivity index), IC50 (L-02)/IC50 (SU-DHL-10) [3]: > 2.3; SI (selectivity index), IC50 (L-02)/IC50 (Raji) [4]: > 8.4
> 100 | > 100 | > 100 | > 100 | > 100 | > 100 | > 100 | > 100 | > 100 | > 100 | > 100 | N#C/C(=C\c1ccccc1)c1cccc(OC(F)(F)F)c1 [Compound 1b2a] | > 100 | > 100 | – | – | – | –
